In US7524849B2, “5-arylpyrimidines as anticancer agents” (Wyeth Holdings Corporation, priority 2003, dated 2009) one finds IC50 data, which are given here for 27 compounds.

One test relates to COLO 205 cells. As to the kind of experiment: MTS cytotoxicity test with COLO 205 cells. Type of test: cell-based, human. The following applies: Homo sapiens, 72 h, three days with compound. The procedure:
The assay, which is sold in kit form by Promega (Madison, Wis.; CellTiter 96 AQueous Non-Radioactive Cell Proliferation Assay), is based on the conversion by viable cells, but not by dead cells, of the tetrazolium salt, MTS (3-(4,5-dimethylthiazol-2-yl)-5-(3-carboxymethoxyphenyl)-2-(4-sulphophenyl)-2H-tetrazolium, inner salt), into a water-soluble colored formazan which is detected by spectrophotometry. Compounds are tested at nine concentrations, in order to determine IC50 values. For the test procedure, cells are harvested by trypsinization, washed, counted and distributed to wells of 96-well flat-bottom microtiter plates at 1000 cells per well in 200 μL of medium. In addition, one row of wells on a separate plate receives cells as above (“time 0” plate). All plates are incubated at 37° in humidified 5% CO2 in air for about 24 hr.
On day 2, compounds for test are diluted and added to wells. Compounds are dissolved in DMSO at 10 mg/mL. For each compound, nine serial 2-fold dilutions are prepared in DMSO. Ten μL of each dilution in DMSO are transferred to 100 μL of medium, mixed well, and then 5 μL of this dilution are transferred in quadruplicate to wells containing cells. The final high concentration of each compound is typically 5 μM. Plates are returned to the incubator for three days. At the time of drug addition to the experimental plates, the MTS assay is run on the “time 0” plate. This produces the “time 0 MTS value” which is related to the number of viable cells per well at the time of drug addition.
After three days of culture with test compounds (day 5 overall), the MTS assay is done on all wells of the experimental plates. The absorbance values of the quadruplicate sample wells are averaged and divided by the average of the “time 0” values. The average of control wells without drug, divided by the average “time 0” value, gives the maximal relative increase in MTS color yield due to cell growth during the final three days of culture. The average of control wells with high drug concentration, divided by the “time 0” value, gives the minimal relative color yield for cells that were completely killed. The nine values for each compound are plotted against concentration, and the concentration that produces a relative color yield half way between the maximum and minimum is taken as the IC50 value.
COLO 205 is a human colon carcinoma cell line that is used for comparative testing of the examples of this invention and several reference compounds. This line is sensitive to paclitaxel and vincristine.
(In general: Tetrazolium dyes change colour on reduction, which living cells bring about.)
Turning to `C[C@H](Nc1nc(-c2cnccn2)nc(Cl)c1-c1c(F)cc(F)cc1F)C(F)(F)F` [Example 3, 6-Chloro-2-pyrazin-2-yl-N-[(1S)-2,2,2-trifluoro-1-methylethyl]-5-(2,4,6-trifluorophenyl)pyrimidin-4-amine], the IC50 (commonly the point on the concentration scale where inhibition reaches its midpoint) amounted to 51 nM.
The same measure, in the same setting: then `Fc1cc(F)c(-c2c(Cl)nc(-c3cnccn3)nc2NCC(F)(F)F)c(F)c1` [Example 4, 6-Chloro-2-pyrazin-2-yl-N-(2,2,2-trifluoroethyl)-5-(2,4,6-trifluorophenyl)pyrimidin-4-amine], with 84 nM; and `Fc1cc(F)c(-c2c(Cl)nc(-c3ncccn3)nc2NCC(F)(F)F)c(F)c1` [Example 5, 6-Chloro-N-(2,2,2-trifluoroethyl)-5-(2,4,6-trifluorophenyl)-2,2′-bipyrimidin-4-amine], with 265 nM.
With `Fc1cc(F)c(-c2c(Cl)nc(-c3ccncc3)nc2NCC(F)(F)F)c(F)c1` [Example 6, 6-Chloro-2-pyridin-4-yl-N-(2,2,2-trifluoroethyl)-5-(2,4,6-trifluorophenyl)pyrimidin-4-amine], the half-maximal inhibitory concentration (IC50) stood at 7050 nM.
The same measure, in the same setting: then `Fc1cc(F)c(-c2c(Cl)nc(-c3cccnc3)nc2NCC(F)(F)F)c(F)c1` [Example 7, 6-Chloro-2-pyridin-3-yl-N-(2,2,2-trifluoroethyl)-5-(2,4,6-trifluorophenyl)pyrimidin-4-amine], with 3930 nM; and `Fc1cc(F)c(-c2c(Cl)nc(-c3ccccn3)nc2NCC(F)(F)F)c(F)c1` [Example 8, 6-Chloro-2-pyridin-2-yl-N-(2,2,2-trifluoroethyl)-5-(2,4,6-trifluorophenyl)pyrimidin-4-amine], with 39 nM.
On the same count and under the same terms, for `C[C@H](Nc1nc(-c2ccccn2)nc(Cl)c1-c1c(F)cc(F)cc1F)C(F)(F)F` [Example 9, 6-Chloro-2-pyridin-2-yl-N-[(1S)-2,2,2-trifluoro-1-methylethyl]-5-(2,4,6-trifluorophenyl)pyrimidin-4-amine] the value was 29 nM.
As to `Fc1cc(F)c(-c2c(Cl)nc(-c3ccc4ccccc4n3)nc2NCC(F)(F)F)c(F)c1` [Example 10, 6-Chloro-2-quinolin-2-yl-N-(2,2,2-trifluoroethyl)-5-(2,4,6-trifluorophenyl)pyrimidin-4-amine], the IC50 was determined as 250 nM.
On the same count and under the same terms, for `Fc1cc(F)c(-c2c(Cl)nc(-c3nccc4ccccc34)nc2NCC(F)(F)F)c(F)c1` [Example 11, 6-Chloro-2-isoquinolin-1-yl-N-(2,2,2-trifluoroethyl)-5-(2,4,6-trifluorophenyl)pyrimidin-4-amine] the value was 4680 nM.
The same measure, in the same setting: for `Fc1cc(F)c(-c2c(Cl)nc(-c3cc4ccccc4cn3)nc2NCC(F)(F)F)c(F)c1` [Example 12, 6-Chloro-2-isoquinolin-3-yl-N-(2,2,2-trifluoroethyl)-5-(2,4,6-trifluorophenyl)pyrimidin-4-amine] the value was 119 nM.
Still for that read-out and setting: then `Fc1cc(F)c(-c2c(Cl)nc(-c3cccs3)nc2NCC(F)(F)F)c(F)c1` [Example 13, 6-Chloro-2-thien-2-yl-N-(2,2,2-trifluoroethyl)-5-(2,4,6-trifluorophenyl)pyrimidin-4-amine], with 3460 nM.
Regarding `Fc1cc(F)c(-c2c(Cl)nc(-c3ccco3)nc2NCC(F)(F)F)c(F)c1` [Example 14, 6-Chloro-2-(2-furyl)-N-(2,2,2-trifluoroethyl)-5-(2,4,6-trifluorophenyl)pyrimidin-4-amine], the IC50 was found to be 232 nM.
Consider `Fc1cc(F)c(-c2c(Cl)nc(-n3cccn3)nc2NCC(F)(F)F)c(F)c1` [Example 16, 6-Chloro-2-(1H-pyrazol-1-yl)-N-(2,2,2-trifluoroethyl)-5-(2,4,6-trifluorophenyl)pyrimidin-4-amine], for which the IC50 amounted to 53 nM.
Turning to `C[C@H](Nc1nc(-n2cccn2)nc(Cl)c1-c1c(F)cc(F)cc1F)C(F)(F)F` [Example 17, 6-Chloro-2-(1H-pyrazol-1-yl)-N-[(1S)-2,2,2-trifluoro-1-methylethyl)-5-(2,4,6-trifluorophenyl)pyrimidin-4-amine], the IC50 is 19 nM.
On to `Fc1cc(F)c(-c2c(Cl)nc(-n3cccc3)nc2NCC(F)(F)F)c(F)c1` [Example 18, 6-Chloro-2-(1H-pyrrol-1-yl)-N-(2,2,2-trifluoroethyl)-5-(2,4,6-trifluorophenyl)pyrimidin-4-amine], for which the IC50 was found to be 7080 nM.
On the same count and under the same terms, then `CN(C)CCOc1cc(F)c(-c2c(Cl)nc(N(C)C#N)nc2NCC(F)(F)F)c(F)c1` [Example 22, 4-Chloro-5-{4-[2-(dimethylamino)ethoxy]-2,6-difluorophenyl}-6-[(2,2,2-trifluoroethyl)amino]pyrimidin-2-yl(methyl)cyanamide], with 532 nM; and `CNCCCOc1cc(F)c(-c2c(Cl)nc(-c3cnccn3)nc2N[C@@H](C)C(F)(F)F)c(F)c1` [Example 24, 6-Chloro-5-{2,6-difluoro-4-[3-(methylamino)propoxy]phenyl}-2-pyrazin-2-yl-N-[(1S)-2,2,2-trifluoro-1-methylethyl]pyrimidin-4-amine], with 6.9 nM; and `CN(C)CCCOc1cc(F)c(-c2c(Cl)nc(-c3cnccn3)nc2NCC(F)(F)F)c(F)c1` [Example 25, 6-Chloro-5-{4-[3-(dimethylamino)propoxy]-2,6-difluorophenyl}-2-pyrazin-2-yl-N-(2,2,2-trifluoroethyl)pyrimidin-4-amine], with 22 nM.
The same measure, in the same setting: for `CN(C)CCCOc1cc(F)c(-c2c(Cl)nc(-c3ncccn3)nc2NCC(F)(F)F)c(F)c1` [Example 26, 6-Chloro-5-{4-[3-(dimethylamino)propoxy]-2,6-difluorophenyl}-N-(2,2,2-trifluoroethyl)-2,2′-bipyrimidin-4-amine] the value was 49 nM; for `CN(C)CCOc1cc(F)c(-c2c(Cl)nc(-c3cnccn3)nc2NCC(F)(F)F)c(F)c1` [Example 27, 6-Chloro-5-{4-[2-(dimethylamino)ethoxy]-2,6-difluorophenyl}-2-pyrazin-2-yl-N-(2,2,2-trifluoroethyl)pyrimidin-4-amine], 128 nM; for `CN(C)CCCCOc1cc(F)c(-c2c(Cl)nc(-c3cnccn3)nc2NCC(F)(F)F)c(F)c1` [Example 28, 6-Chloro-5-{4-[4-(dimethylamino)butoxy]-2,6-difluorophenyl}-2-pyrazin-2-yl-N-(2,2,2-trifluoroethyl)pyrimidin-4-amine], 32 nM.
On to `Cn1ccnc1-c1nc(Cl)c(-c2c(F)cc(F)cc2F)c(NCC(F)(F)F)n1` [Example 34, 6-Chloro-2-(1-methyl-1H-imidazol-2-yl)-N-(2,2,2-trifluoroethyl)-5-(2,4,6-trifluorophenyl)pyrimidin-4-amine], for which the IC50 amounted to 77 nM.
In the case of `Fc1cc(F)c(-c2c(Cl)nc(-c3ccc[nH]3)nc2NCC(F)(F)F)c(F)c1` [Example 35, 6-Chloro-2-(1H-pyrrol-2-yl)-N-(2,2,2-trifluoroethyl)-5-(2,4,6-trifluorophenyl)pyrimidin-4-amine], the IC50 came to 7030 nM.
On the same count and under the same terms, for `Cc1ccnc(-c2nc(Cl)c(-c3c(F)cc(F)cc3F)c(NCC(F)(F)F)n2)c1` [Example 36, 6-Chloro-2-(4-methylpyridin-2-yl)-N-(2,2,2-trifluoroethyl)-5-(2,4,6-trifluorophenyl)pyrimidin-4-amine] the value was 109 nM.
Same read-out and setting: then `O=[N+]([O-])c1ccc(-c2nc(Cl)c(-c3c(F)cc(F)cc3F)c(NCC(F)(F)F)n2)nc1` [Example 37, 6-Chloro-2-(5-nitropyridin-2-yl)-N-(2,2,2-trifluoroethyl)-5-(2,4,6-trifluorophenyl)pyrimidin-4-amine], with 132 nM; and `CN(C)CCCOc1cc(F)c(-c2c(Cl)nc(-c3ccc(N=[N+]=[N-])cn3)nc2NCC(F)(F)F)c(F)c1` [Example 38, 2-(5-Azidopyridin-2-yl)-6-chloro-5-{4-[3-(dimethylamino)propoxy]-2,6-difluorophenyl}-N-(2,2,2-trifluoroethyl)pyrimidin-4-amine], with 23 nM.

Still in this test, the particulars now being: three days with compound.
In the case of “4-Chloro-6-[(2,2,2-trifluoroethyl)amino]-5-(2,4,6-trifluorophenyl)pyrimidin-2-yl]ethylcyanamide [Example 2]”, the IC50 was 304 nM.
